Reference: patent US20250353891A1 (MEDIMMUNE LIMITED, priority 2022, published 2025)
Starred links: 1 amine or outer side, 2 acyl side, 3 side chain; linkers in the order of their positions; H or OH if unused. Non-standard residues stand in square brackets, D forms with d. Residues, ends and D or L forms follow the SMILES beside them. Groups on a side chain read outwards from the residue. *: point of attachment. C18 diacid = O=C(O)CCCCCCCCCCCCCCCCC(=O)*; γGlu = O=C(O)[C@H](CCC(=O)[*:2])N[*:1]; αMeF = C[C@](N)(Cc1ccccc1)C(=O)O; Aib = CC(C)(N)C(=O)O

How the values were obtained:
[1] = test system: GLP-1R knockout (KO) mice; assay: Glucose change in GLP-1R knockout mice; type: in vivo, mouse; details: GLP-1R KO mice, s.c., 120 min vs 0 min, somatostatin pretreatment (octreotide) 30 min prior to cpd
How it was run: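 GLP-1R knockout mice (n=4-8/group, sorted by body weight) were fasted 2 h, and in some studies pretreated with octreotide 10 mg/kg 30 min before peptide injection. Mice were reused up to 3 times with at least 1-week wash-out.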

[2] = molecular target: human GLP-1 receptor (hGLP-1R) (Homo sapiens, UniProt P43220); assay: cAMP production (HTRF) in CHO cells expressing hGLP-1R; type: cell-based; design: expressed in transfected cells
How it was run: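 Potency values represent EC50 from 4-parameter logistic curves of HTRF % Delta F signal. Receptor-expressing CHO cells (hGCGR 2×10^5 cells/mL, hGLP-1R 1×10^5 cells/mL) were exposed for 30 min at room temperature before two-step cAMP detection.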

[3] = Proteolytic resistance to FasSSIF/Pancreatin; type: in vitro ADME; details: simulated intestinal fluid
How it was run: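 Peptide (1.0 mg) in pre-warmed FasSSIF, proteolysis started with fresh FasSSIF/USP Pancreatin and held at 37 °C. Aliquots at 0, 5, 10, 15, 30 min quenched in 10% TFA; remaining intact peptide estimated by RP-HPLC peak area, UV 210 nm.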

Sequence of human GLP-1 receptor (hGLP-1R) (P43220 24-463): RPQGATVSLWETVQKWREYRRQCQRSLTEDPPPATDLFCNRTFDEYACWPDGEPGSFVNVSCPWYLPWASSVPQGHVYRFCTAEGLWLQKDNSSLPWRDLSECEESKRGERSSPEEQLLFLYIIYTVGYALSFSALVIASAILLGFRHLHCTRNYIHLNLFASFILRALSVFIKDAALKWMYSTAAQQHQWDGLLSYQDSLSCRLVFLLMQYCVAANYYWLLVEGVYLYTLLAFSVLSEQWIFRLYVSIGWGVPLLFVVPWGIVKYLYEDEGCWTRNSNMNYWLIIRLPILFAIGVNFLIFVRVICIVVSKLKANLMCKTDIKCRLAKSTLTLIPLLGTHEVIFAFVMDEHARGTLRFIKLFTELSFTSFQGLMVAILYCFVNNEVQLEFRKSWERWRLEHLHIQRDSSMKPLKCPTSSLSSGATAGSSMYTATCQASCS

EC50 ([2]; Table 6, peptides modified at position 17, cAMP in CHO hGLP-1R cells, geometric mean, read-out: hGLP-1R EC50): 0.0846 nM | % Relative Potency Ratio ([2]; Table 6, % GLP-1R activity relative to GLP-1 / % GlucR activity relative to glucagon): 0.7 | remaining at 5 min, 3.3 mg/mL [3]: 96% | remaining at 10 min, 3.3 mg/mL [3]: 98% | remaining at 0.25 h, 3.3 mg/mL [3]: 96% | remaining at 0.5 h, 3.3 mg/mL [3]: 94%
Structure (SMILES): CC[C@H](C)[C@H](NC(=O)[C@H](Cc1c[nH]c2ccccc12)NC(=O)[C@H](CCC(=O)O)NC(=O)[C@@H](NC(=O)[C@](C)(Cc1ccccc1)NC(=O)[C@H](CC(=O)O)NC(=O)[C@H](CCC(N)=O)NC(=O)[C@H](C)NC(=O)[C@H](C)NC(=O)[C@H](CCCCNC(=O)CC[C@H](NC(=O)CCCCCCCCCCCCCCCCC(=O)O)C(=O)O)NC(=O)[C@H](CO)NC(=O)[C@H](CC(=O)O)NC(=O)[C@H](CC(C)C)NC(=O)[C@](C)(Cc1ccccc1)NC(=O)[C@H](CCCCN)NC(=O)[C@H](CO)NC(=O)[C@@H](NC(=O)[C@H](CC(=O)O)NC(=O)[C@H](CO)NC(=O)[C@@H](NC(=O)[C@](C)(Cc1ccccc1)NC(=O)[C@H](CO)NC(=O)CNC(=O)[C@H](Cc1c[nH]cn1)NC(=O)C(C)(C)NC(=O)[C@@H](N)Cc1c[nH]cn1)[C@@H](C)O)C(C)C)C(C)C)C(=O)N[C@@H](C)C(=O)N[C@@H](CC(N)=O)C(=O)N[C@H](C(N)=O)[C@@H](C)O [Peptide 7] (H-H[Aib]HGS[αMeF]TSDVSK[αMeF]LDSK([γGlu-C18 diacid])AAQD[αMeF]VEWIANT-NH2; N-terminus assumed)
GLP-1R KO % glucose change 120 min ([1]; 1.5 nmol/kg): 80.8% | GLP-1R KO % glucose change 120 min ([1]; 5 nmol/kg): 152.9%
